Test results as given in patent publication US9309224B2 (Deciphera Pharmaceuticals, LLC, priority 2013, dated 2016).

What was measured:
[1] = molecular target: T1, unphosphorylated PDGFRβ kinase (uPDGFRβ, Seq. ID No. 3) (Homo sapiens, UniProt P09619); test: Unphosphorylated PDGFRβ kinase assay (pyruvate kinase/lactate dehydrogenase coupled); type: biochemical; conditions: ATP 500 μM
T1 construct: purchased DeCode
From the text: Unphosyhorylated PDGFRβ (uPDGFRβkinase (Seq. ID No. 3) assay

[2] = molecular target: T2, unphosphorylated c-KIT kinase (uKIT, Seq. ID no. 2) (Homo sapiens, UniProt P10721); test: uKit kinase assay (pyruvate kinase/lactate dehydrogenase coupled); type: biochemical; conditions: ATP 2000 μM
T2 construct: uKit with N-terminal GST fusion used for
T2 sequence (P10721 with tags, fused parts or gaps): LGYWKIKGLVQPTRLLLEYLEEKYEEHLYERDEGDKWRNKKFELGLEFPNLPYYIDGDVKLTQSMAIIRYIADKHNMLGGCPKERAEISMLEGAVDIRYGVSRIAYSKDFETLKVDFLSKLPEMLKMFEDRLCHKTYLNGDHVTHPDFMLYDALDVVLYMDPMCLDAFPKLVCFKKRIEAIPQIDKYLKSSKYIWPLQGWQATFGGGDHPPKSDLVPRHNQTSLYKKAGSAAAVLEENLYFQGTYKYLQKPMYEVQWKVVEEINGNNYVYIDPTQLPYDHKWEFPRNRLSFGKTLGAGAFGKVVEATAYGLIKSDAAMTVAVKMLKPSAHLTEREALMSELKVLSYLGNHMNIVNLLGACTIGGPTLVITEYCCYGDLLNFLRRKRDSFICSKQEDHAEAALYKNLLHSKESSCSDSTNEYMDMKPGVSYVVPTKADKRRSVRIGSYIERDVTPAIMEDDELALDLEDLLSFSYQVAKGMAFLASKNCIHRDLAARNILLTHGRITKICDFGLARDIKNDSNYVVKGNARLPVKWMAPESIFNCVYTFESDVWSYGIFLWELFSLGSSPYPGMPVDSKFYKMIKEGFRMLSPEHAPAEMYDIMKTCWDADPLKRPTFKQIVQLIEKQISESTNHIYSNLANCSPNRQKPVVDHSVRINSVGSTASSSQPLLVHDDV
Experimental: In this assay, the oxidation of NADH (thus the decrease at A340 nm) was continuously monitored spectrophometrically. […] The inhibition reaction was started by mixing serial diluted test compound with the above reaction mixture. The absorption at 340 nm was monitored continuously for 4 hours at 30° C. on Synergy 2 plate reader (BioTech).

osteoclast precursors = test: Osteoclast tartrate-resistant acid phosphatase assay; type: cell-based; conditions: 7-14 days, RANKL and M-CSF
Experimental: Diluted compound was transferred to a 384-well black clear bottom plate. Two-thousand five hundred osteoclast precursors (Lonza, Walkersville, Md.) were added per well in growth media containing Receptor Activator of Nuclear Factor Kappa-beta ligand (RANKL) and M-CSF (R&D Systems, Minneapolis, Minn.). Plates were incubated for 7-14 days at 37 degrees Celsius, 5% CO2, and 95% humidity to allow differentiation of osteoclast precursors. […] Tartrate-resistant acid phosphatase activity in the supernatant samples was determined using an acid phosphatase assay kit (Sigma, St. Louis, Mo.). Absorbance was measured at 550 nm using a plate reader. Data was analyzed using Prism software (Graphpad, San Diego, Calif.) to calculate IC50 values.

M-NFS-60 cells = test: M-NFS-60 cell proliferation assay; type: cell-based; conditions: 67 h incubation, resazurin
Experimental: M-NFS-60 Cell Proliferation Assay A serial dilution of test compound was dispensed into a 384-well black clear bottom plate (Corning, Corning, N.Y.). Two thousand five hundred cells were added per well in 50 μL complete growth medium. […] IC50 values were calculated from a series of percent inhibition values determined at a range of inhibitor concentrations using software routines as implemented in the GraphPad Prism software package.

[3] = molecular target: T3, unphosphorylated c-FMS kinase (uFMS, Seq. ID no. 1) (Homo sapiens, UniProt P07333); test: uFMS kinase assay (pyruvate kinase/lactate dehydrogenase coupled); type: biochemical; conditions: ATP 500 μM
T3 construct: purchased Millipore
T3 sequence (P07333 538-972): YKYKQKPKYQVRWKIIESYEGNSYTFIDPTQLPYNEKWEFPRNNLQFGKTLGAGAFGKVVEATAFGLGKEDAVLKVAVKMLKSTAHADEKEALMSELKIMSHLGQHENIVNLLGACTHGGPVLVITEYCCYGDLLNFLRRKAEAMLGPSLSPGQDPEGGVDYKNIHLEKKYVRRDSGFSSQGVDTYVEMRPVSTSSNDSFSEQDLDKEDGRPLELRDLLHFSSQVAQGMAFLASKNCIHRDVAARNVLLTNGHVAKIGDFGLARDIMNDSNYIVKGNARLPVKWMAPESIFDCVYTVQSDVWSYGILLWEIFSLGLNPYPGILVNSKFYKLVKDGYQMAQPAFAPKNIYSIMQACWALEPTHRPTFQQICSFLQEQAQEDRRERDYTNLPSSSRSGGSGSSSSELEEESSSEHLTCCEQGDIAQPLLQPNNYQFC
Experimental: In this assay, the oxidation of NADH (thus the decrease at A340 nm) was continuously monitored spectrophometrically. The reaction mixture (100 μL) contained FMS (purchased from Millipore) (10 nM), polyE4Y (1 mg/mL), MgCl2 (10 mM), pyruvate kinase (4 units), lactate dehydrogenase (0.7 units), phosphoenol pyruvate (1 mM), NADH (0.28 mM) and ATP (500 μM) in 90 mM Tris buffer containing 0.2% octyl-glucoside and 1% DMSO, pH 7.5. The inhibition reaction was started by mixing serial diluted test compound with the above reaction mixture. The absorption at 340 nm was monitored continuously for 4 hours at 30° C. on Synergy 2 plate reader. The reaction rate was calculated using the 3 to 4 h time frame. Percent inhibition was obtained by comparison of reaction rate with that of a control (i.e. in the absence of test compound). IC50 values were calculated from a series of percent inhibition values determined at a range of inhibitor concentrations using software routines as implemented in the GraphPad Prism software package.

[4] = molecular target: T4, phospho-FMS in THP-1 cells (Homo sapiens, UniProt P07333); test: Phospho-FMS ELISA assay in THP-1 cells; type: cell-based; conditions: 4 hours compound, M-CSF stimulated; read-out: pFMS inhibition in THP-1 cells
T4 construct: endogenous in cells; host or cells: THP-1 (ATCC TIB-202)
T4 sequence (P07333 20-972): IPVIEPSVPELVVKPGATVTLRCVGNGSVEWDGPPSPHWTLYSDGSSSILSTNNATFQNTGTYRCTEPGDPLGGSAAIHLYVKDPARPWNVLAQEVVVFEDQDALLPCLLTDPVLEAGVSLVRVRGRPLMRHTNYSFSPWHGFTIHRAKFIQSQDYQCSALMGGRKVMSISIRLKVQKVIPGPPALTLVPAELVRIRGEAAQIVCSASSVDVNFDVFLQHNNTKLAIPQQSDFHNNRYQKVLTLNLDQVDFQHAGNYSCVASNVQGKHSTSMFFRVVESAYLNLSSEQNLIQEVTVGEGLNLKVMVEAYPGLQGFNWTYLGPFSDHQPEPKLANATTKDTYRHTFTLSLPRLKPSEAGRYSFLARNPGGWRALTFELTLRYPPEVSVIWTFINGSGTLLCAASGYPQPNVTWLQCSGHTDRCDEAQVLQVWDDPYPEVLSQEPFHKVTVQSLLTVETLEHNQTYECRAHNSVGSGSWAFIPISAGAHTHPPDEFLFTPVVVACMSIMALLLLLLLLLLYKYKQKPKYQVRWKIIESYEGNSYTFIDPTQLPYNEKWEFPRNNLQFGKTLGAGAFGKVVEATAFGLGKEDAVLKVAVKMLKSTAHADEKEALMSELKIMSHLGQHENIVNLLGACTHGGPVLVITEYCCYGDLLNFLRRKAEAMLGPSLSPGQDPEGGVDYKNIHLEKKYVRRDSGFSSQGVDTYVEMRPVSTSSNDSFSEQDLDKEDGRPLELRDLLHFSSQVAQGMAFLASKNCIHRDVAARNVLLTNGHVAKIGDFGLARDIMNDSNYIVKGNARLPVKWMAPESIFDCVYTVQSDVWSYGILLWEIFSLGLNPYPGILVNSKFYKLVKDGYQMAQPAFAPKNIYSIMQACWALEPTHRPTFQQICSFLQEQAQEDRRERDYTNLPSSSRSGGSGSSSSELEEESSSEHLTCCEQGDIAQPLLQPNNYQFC

T1 sequence (P09619 557-1105): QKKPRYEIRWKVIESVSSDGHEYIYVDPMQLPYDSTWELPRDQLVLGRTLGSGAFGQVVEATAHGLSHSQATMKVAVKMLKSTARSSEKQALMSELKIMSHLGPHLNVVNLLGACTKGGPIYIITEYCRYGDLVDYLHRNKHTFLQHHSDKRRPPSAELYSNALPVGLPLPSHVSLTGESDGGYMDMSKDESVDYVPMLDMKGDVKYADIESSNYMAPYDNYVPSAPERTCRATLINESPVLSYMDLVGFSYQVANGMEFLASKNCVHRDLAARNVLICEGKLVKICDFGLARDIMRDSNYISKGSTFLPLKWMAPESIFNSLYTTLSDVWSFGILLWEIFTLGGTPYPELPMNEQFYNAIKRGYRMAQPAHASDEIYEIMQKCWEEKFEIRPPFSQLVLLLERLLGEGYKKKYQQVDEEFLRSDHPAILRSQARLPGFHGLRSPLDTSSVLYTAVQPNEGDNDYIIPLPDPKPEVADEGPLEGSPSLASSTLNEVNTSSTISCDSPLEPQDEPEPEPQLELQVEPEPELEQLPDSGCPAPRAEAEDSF

Structure (SMILES)	IC50 [1] [nM]	IC50 [2] [nM]	IC50 (osteoclast precursors; Osteoclast) [nM]	IC50 (M-NFS-60 cells) [nM]	IC50 [3] [nM]	IC50 [4] [nM]	IC50 (osteoclast precursors) [nM]
CC(=O)Nc1cc(Oc2ccc(NC(=O)NC(=O)C3CCCC3)nc2)ccn1 [Example 2, N-((5-((2-acetamidopyridin-4-yl)oxy)pyridin-2-yl)carbamoyl)cyclopentanecarboxamide]	< 10	100 to 1000	< 10	10 to 100	< 10	10 to 100	
CC(=O)Nc1cc(Oc2ccc(NC(=O)NC(=O)C3CCOCC3)nc2)ccn1 [Example 5, N-((5-((2-acetamidopyridin-4-yl)oxy)pyridin-2-yl)carbamoyl)tetrahydro-2H-pyran-4-carboxamide]	100 to 1000	100 to 1000	< 10	10 to 100	10 to 100	< 10	
CC(=O)Nc1cc(Oc2ccc(NC(=O)NC(=O)C3CCOCC3)nc2C)ccn1 [Example 7, N-((5-((2-acetamidopyridin-4-yl)oxy)-6-methylpyridin-2-yl)carbamoyl)tetrahydro-2H-pyran-4-carboxamide]	100 to 1000	> 1000	10 to 100	10 to 100	10 to 100	< 10	
CC(=O)Nc1cc(Oc2ccc(NC(=O)NC(=O)C(C)(C)C)nc2C)ccn1 [Example 9, N-((5-((2-acetamidopyridin-4-yl)oxy)-6-methylpyridin-2-yl)carbamoyl)pivalamide]	> 1000	> 1000	< 10	< 10	< 10	< 10	
CCC(=O)Nc1cc(Oc2ccc(NC(=O)NC(=O)C(C)(C)C)nc2C)ccn1 [Example 12, N-((6-methyl-5-((2-propionamidopyridin-4-yl)oxy)pyridin-2-yl)carbamoyl)pivalamide]	100 to 1000	> 1000	10 to 100	< 10	< 10	10 to 100	
Cc1nc(NC(=O)NC(=O)C(C)(C)C)ccc1Oc1ccnc(NC(=O)C(C)C)c1 [Example 13, N-((5-((2-isobutyramidopyridin-4-yl)oxy)-6-methylpyridin-2-yl)carbamoyl)pivalamide]	100 to 1000	> 1000	10 to 100	< 10	< 10	< 10	
CC(C)C(=O)Nc1cc(Oc2ccc(NC(=O)NC(=O)C(C)(C)C)nc2)ccn1 [Example 17, N-((5-((2-isobutyramidopyridin-4-yl)oxy)pyridin-2-yl)carbamoyl)pivalamide]	100 to 1000	> 1000	10 to 100	10 to 100	10 to 100	10 to 100	
CC(=O)Nc1cc(Oc2ccc(NC(=O)NC(=O)C3(C)CC3)nc2)ccn1 [Example 19, N-((5-((2-acetamidopyridin-4-yl)oxy)pyridin-2-yl)carbamoyl)-1-methylcyclopropanecarboxamide]	100 to 1000	100 to 1000	< 10	10 to 100	10 to 100	10 to 100	
COC(C)(C)C(=O)NC(=O)Nc1ccc(Oc2ccnc(NC(C)=O)c2)c(C)n1 [Example 20, N-((5-((2-acetamidopyridin-4-yl)oxy)-6-methylpyridin-2-yl)carbamoyl)-2-methoxy-2-methylpropanamide]	> 1000	> 1000	10 to 100	< 10	10 to 100	< 10	
CCC(=O)Nc1cc(Oc2ccc(NC(=O)NC(=O)C(C)(C)C)nc2)ccn1 [Example 24, N-((5-((2-propionamidopyridin-4-yl)oxy)pyridin-2-yl)carbamoyl)pivalamide]	100 to 1000	100 to 1000	< 10	10 to 100	10 to 100	< 10	
CC(=O)Nc1cc(Oc2ccc(NC(=O)NC(=O)C3(C(F)(F)F)CCC3)nc2)ccn1 [Example 25, N-((5-((2-acetamidopyridin-4-yl)oxy)pyridin-2-yl)carbamoyl)-1-(trifluoromethyl)cyclobutanecarboxamide]	100 to 1000	> 1000	< 10	10 to 100	10 to 100	< 10	
COC1(C(=O)NC(=O)Nc2ccc(Oc3ccnc(NC(C)=O)c3)cn2)CC1 [Example 27, N-((5-((2-acetamidopyridin-4-yl)oxy)pyridin-2-yl)carbamoyl)-1-methoxycyclopropanecarboxamide]	100 to 1000	> 1000	< 10	10 to 100	10 to 100	10 to 100	
CC(C)(C)C(=O)NC(=O)Nc1ccc(Oc2ccnc(NC(=O)CC#N)c2)cn1 [Example 56, N-((5-((2-(2-cyanoacetamido)pyridin-4-yl)oxy)pyridin-2-yl)carbamoyl)pivalamide]	100 to 1000	> 1000	100 to 1000	> 1000	10 to 100		
CC(C)C(=O)NC(=O)Nc1ccc(Oc2ccnc(NC(=O)C3CCN(C)CC3)c2)cn1 [Example 57, N-(4-((6-(3-isobutyrylureido)pyridin-3-yl)oxy)pyridin-2-yl)-1-methylpiperidine-4-carboxamide]	> 1000	> 1000	100 to 1000	> 1000	100 to 1000		
Cn1cnc(C(=O)Nc2cc(Oc3ccc(NC(=O)NC(=O)C(C)(C)C)nc3)ccn2)c1 [Example 59, 1-methyl-N-(4-((6-(3-pivaloylureido)pyridin-3-yl)oxy)pyridin-2-yl)-1H-imidazole-4-carboxamide]	100 to 1000	100 to 1000	< 10	< 10	< 10		
CN(C)C1CC(C(=O)Nc2cc(Oc3ccc(NC(=O)NC(=O)C(C)(C)C)nc3)ccn2)C1 (centres unmarked) [Example 60, (1s,3s)-3-(dimethylamino)-N-(4-((6-(3-pivaloylureido)pyridin-3-yl)oxy)pyridin-2-yl)cyclobutanecarboxamide]	100 to 1000	> 1000	10 to 100	100 to 1000	10 to 100		
CN(C)C1CC(C(=O)Nc2cc(Oc3ccc(NC(=O)NC(=O)C(C)(C)C)nc3)ccn2)C1 (centres unmarked) [Example 61, (1r,3r)-3-(dimethylamino)-N-(4-((6-(3-pivaloylureido)pyridin-3-yl)oxy)pyridin-2-yl)cyclobutanecarboxamide]	100 to 1000	> 1000		100 to 1000	10 to 100		10 to 100
CNC(=O)c1cc(Oc2ccc(NC(=O)NC(=O)C3(C(F)(F)F)CCC3)nc2)ccn1 [Example 72, N-methyl-4-((6-(3-(1-(trifluoromethyl)cyclobutanecarbonyl)ureido)pyridin-3-yl)oxy)picolinamide]	> 1000	> 1000	10 to 100	100 to 1000	10 to 100		
CC(C)NC(=O)c1cc(Oc2ccc(NC(=O)NC(=O)C(C)(C)C)nc2)ccn1 [Example 73, N-isopropyl-4-((6-(3-pivaloylureido)pyridin-3-yl)oxy)picolinamide]	> 1000	> 1000	10 to 100	> 1000	100 to 1000		
CC(C)(C)C(=O)NC(=O)Nc1ccc(Oc2ccnc(C(=O)NC3CC3)c2)cn1 [Example 74, N-cyclopropyl-4-((6-(3-pivaloylureido)pyridin-3-yl)oxy)picolinamide]	> 1000	> 1000	10 to 100	100 to 1000	10 to 100		
CN1CCC(NC(=O)c2cc(Oc3ccc(NC(=O)NC(=O)C(C)(C)C)nc3)ccn2)CC1 [Example 75, N-(1-methylpiperidin-4-yl)-4-((6-(3-pivaloylureido)pyridin-3-yl)oxy)picolinamide]	> 1000	> 1000	10 to 100	> 1000	100 to 1000		
CC(C)(C)C(=O)NC(=O)Nc1ccc(Oc2ccnc(NC(=O)N3CCCC3)c2)cn1 [Example 78, N-(4-((6-(3-pivaloylureido)pyridin-3-yl)oxy)pyridin-2-yl)pyrrolidine-1-carboxamide]	10 to 100	10 to 100	< 10	< 10	< 10		
